Data taken from patent US8741934B2, “Inhibitors of ion channels” (Pfizer Limited, priority 2007, dated 2014).

target: T1, hSCN3A sodium channels (Homo sapiens, UniProt Q9NY46); assay: hSCN3A electrophysiology, whole-cell patch-clamp or PatchXpress 7000, estimated IC-50 (Table B); format: cell-based; conditions: estimated IC-50; hSCN3A cells, whole-cell patch-clamp or PatchXpress 7000; read-out: SCN3A EIC-50
T1 construct: expressed in transfected cells
Outline: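 Stably transfected HEK cells, whole-cell voltage clamp at 22-24° C, manual or PatchXpress 7000. Cells held at empirically determined inactivation V1/2; current evoked by 20 msec step to 0 mV after 8 sec prepulse to V1/2.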

T1 sequence (Q9NY46 whole entry): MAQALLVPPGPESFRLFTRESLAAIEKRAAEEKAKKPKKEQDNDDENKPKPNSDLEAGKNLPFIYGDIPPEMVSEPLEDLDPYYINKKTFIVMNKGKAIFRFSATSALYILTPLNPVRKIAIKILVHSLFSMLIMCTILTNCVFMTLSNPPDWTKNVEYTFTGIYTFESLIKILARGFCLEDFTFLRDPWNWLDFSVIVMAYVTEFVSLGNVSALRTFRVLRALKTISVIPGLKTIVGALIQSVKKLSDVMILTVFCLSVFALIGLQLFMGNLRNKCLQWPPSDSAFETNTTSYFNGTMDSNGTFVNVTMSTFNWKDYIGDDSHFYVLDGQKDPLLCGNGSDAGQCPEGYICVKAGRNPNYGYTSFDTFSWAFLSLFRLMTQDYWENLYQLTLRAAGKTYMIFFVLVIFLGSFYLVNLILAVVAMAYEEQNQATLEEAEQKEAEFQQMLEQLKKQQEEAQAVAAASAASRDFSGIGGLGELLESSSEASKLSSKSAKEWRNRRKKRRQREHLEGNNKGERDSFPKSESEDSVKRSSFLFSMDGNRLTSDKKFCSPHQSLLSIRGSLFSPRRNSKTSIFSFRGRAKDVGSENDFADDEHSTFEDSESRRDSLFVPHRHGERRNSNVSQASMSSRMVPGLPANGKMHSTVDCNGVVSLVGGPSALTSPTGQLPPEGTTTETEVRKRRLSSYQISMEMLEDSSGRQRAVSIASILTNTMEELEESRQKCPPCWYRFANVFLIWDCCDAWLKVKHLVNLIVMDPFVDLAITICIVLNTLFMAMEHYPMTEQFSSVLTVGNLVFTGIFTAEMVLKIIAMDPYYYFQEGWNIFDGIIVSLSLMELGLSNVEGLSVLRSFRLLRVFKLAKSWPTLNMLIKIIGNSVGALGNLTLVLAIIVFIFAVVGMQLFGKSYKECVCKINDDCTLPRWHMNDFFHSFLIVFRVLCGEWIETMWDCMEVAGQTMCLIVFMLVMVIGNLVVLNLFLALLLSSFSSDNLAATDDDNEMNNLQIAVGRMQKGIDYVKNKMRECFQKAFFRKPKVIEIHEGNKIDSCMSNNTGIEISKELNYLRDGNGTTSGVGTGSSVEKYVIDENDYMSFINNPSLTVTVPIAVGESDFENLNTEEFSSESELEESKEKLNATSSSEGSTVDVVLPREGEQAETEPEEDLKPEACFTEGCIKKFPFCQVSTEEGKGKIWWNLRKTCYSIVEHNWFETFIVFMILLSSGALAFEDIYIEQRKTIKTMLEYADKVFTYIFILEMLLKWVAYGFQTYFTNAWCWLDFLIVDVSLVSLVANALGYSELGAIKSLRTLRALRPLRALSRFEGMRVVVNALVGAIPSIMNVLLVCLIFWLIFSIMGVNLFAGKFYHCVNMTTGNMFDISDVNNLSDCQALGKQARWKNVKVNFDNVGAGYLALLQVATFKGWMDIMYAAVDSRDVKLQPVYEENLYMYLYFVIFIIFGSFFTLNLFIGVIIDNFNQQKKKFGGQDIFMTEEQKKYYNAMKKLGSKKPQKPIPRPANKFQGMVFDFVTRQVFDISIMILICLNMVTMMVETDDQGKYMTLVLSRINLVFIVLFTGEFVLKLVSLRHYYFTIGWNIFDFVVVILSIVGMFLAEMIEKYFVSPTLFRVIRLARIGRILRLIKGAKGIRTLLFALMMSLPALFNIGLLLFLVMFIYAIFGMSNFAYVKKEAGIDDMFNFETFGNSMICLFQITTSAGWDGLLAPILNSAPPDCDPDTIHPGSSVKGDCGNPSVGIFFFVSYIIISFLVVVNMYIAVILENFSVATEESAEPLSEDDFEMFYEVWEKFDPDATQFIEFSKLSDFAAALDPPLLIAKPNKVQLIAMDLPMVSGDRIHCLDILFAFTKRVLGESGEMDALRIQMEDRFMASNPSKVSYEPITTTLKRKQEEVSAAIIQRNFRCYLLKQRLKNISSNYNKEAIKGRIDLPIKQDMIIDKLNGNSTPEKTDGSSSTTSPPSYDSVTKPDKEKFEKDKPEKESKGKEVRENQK

Compared with `O=C(NCc1ccc(-n2cccn2)cc1)c1ccc(S(=O)(=O)Nc2nccs2)cc1` [Example 60, N-[4-(1H-pyrazol-1-yl)benzyl]-4-[(1,3-thiazol-2-ylamino)sulfonyl]benzamide], `O=C(NCc1ccc(Cl)c(Cl)c1)c1ccc(S(=O)(=O)Nc2nccs2)cc1` [Example 388, N-(3,4-dichlorobenzyl)-4-[(1,3-thiazol-2-ylamino)sulfonyl]benzamide] is 14-fold lower in IC50: 1500 nM for the first, 110 nM for the second.

Going from `O=C(c1ccc(S(=O)(=O)Nc2nccs2)cc1)N1CCOC(COc2ccc(F)cc2Cl)C1` (stereo not drawn) [Example 266, 4-({2-[(2-Chloro-4-fluorophenoxy)methyl]morpholin-4-yl}carbonyl)-N-1,3-thiazol-2-ylbenzenesulfonamide] to `O=C(c1ccc(S(=O)(=O)Nc2nccs2)cc1)N1CC[C@H](Oc2ccccc2Cl)C1` [Example 200, 4-{[(3S)-3-(2-chlorophenoxy)pyrrolidin-1-yl]carbonyl}-N-1,3-thiazol-2-yl-benzenesulfonamide], the IC50 rises from 1670 nM to 3600 nM (2.2-fold).

`O=C(NCc1ccc(F)c(F)c1)c1ccc(S(=O)(=O)Nc2ncc(Cl)s2)cc1F` [Example 361, 4-{[(5-Chloro-1,3-thiazol-2-yl)amino]sulfonyl}-N-(3,4-difluorobenzyl)-2-fluorobenzamide] and `O=C(NCc1ccc(F)c(F)c1)c1ccc(S(=O)(=O)Nc2nccs2)cc1F` [Example 329, N-(3,4-difluorobenzyl)-2-fluoro-4-[(1,3-thiazol-2-ylamino)sulfonyl] benzamide] are within 1.5-fold of each other in IC50: 310 nM for the first, 360 nM for the second.

Going from `N#Cc1ccc(OC2CCCN(C(=O)c3ccc(S(=O)(=O)Nc4nccs4)cc3)C2)cc1F` (stereo not drawn) [Example 193, 4-{[3-(4-Cyano-3-fluorophenoxy)piperidin-1-yl]carbonyl}-N-1,3-thiazol-2-yl-benzenesulfonamide] to `Cc1cccc(OC2CCCN(C(=O)c3ccc(S(=O)(=O)Nc4nccs4)cc3)C2)c1` (stereo not drawn) [Example 51, 4-{[3-(3-Methylphenoxy)piperidin-1-yl]carbonyl}-N-1,3-thiazol-2-ylbenzenesulfonamide], the IC50 rises from 3270 nM to 6580 nM (2-fold). The first is the more potent here.

Going from `O=C(NCc1ccc(F)c(F)c1)c1ccc(S(=O)(=O)Nc2ncc(Cl)s2)c(Cl)c1` [Example 371, 3-Chloro-4-{[(5-chloro-1,3-thiazol-2-yl)amino]sulfonyl}-N-(3,4-difluorobenzyl) benzamide] to `O=C(NCc1ccc(Cl)c(F)c1)c1ccc(S(=O)(=O)Nc2ncc(Cl)s2)c(Cl)c1` [Example 369, 3-Chloro-N-(4-chloro-3-fluorobenzyl)-4-{[(5-chloro-1,3-thiazol-2-yl)amino]sulfonyl} benzamide], the IC50 rises from 1300 nM to 6170 nM (4.7-fold).

Compared with `N#Cc1cc(CNC(=O)c2ccc(S(=O)(=O)Nc3nccs3)cc2)ccc1F` [Example 55, N-(3-cyano-4-fluorobenzyl)-4-[(1,3-thiazol-2-ylamino)sulfonyl]benzamide], `O=C(NCc1ccc(F)c(C2CC2)c1)c1ccc(S(=O)(=O)Nc2nccs2)cc1` [Example 54, N-(3-cyclopropyl-4-fluorobenzyl)-4-[(1,3-thiazol-2-ylamino)sulfonyl]benzamide] is 12-fold lower in IC50: 1410 nM for the first, 120 nM for the second. The second is the more potent here.

`O=C(NCc1ccc(F)c(C(F)(F)F)c1)c1ccc(S(=O)(=O)Nc2ncc(Cl)s2)cc1` [Example 34, 4-{[(5-Chloro-1,3-thiazol-2-yl)amino]sulfonyl}-N-[4-fluoro-3-(trifluoromethyl)benzyl]benzamide] and `O=C(NCc1ccc(F)c(Cl)c1)c1ccc(S(=O)(=O)Nc2ncc(Cl)s2)cc1` [Example 36, N-(3-Chloro-4-fluorobenzyl)-4-{[(5-chloro-1,3-thiazol-2-yl)amino]sulfonyl}benzamide] are within 1.5-fold of each other in IC50: 90 nM for the first, 70 nM for the second.

Compared with `O=C(NCc1ccc(C(F)(F)F)cc1)c1ccc(S(=O)(=O)Nc2cscn2)cc1` [Example 13, 4-[(1,3-Thiazol-4-ylamino)sulfonyl]-N-[4-(trifluoromethyl)benyzyl]benzamide], `O=C(NCc1ccc(C(F)(F)F)cc1)c1ccc(S(=O)(=O)Nc2ncns2)cc1` [Example 20, 4-[(1,2,4-Thiadiazol-5-ylamino)sulfonyl]-N-[4-(trifluoromethyl)benzyl]benzamide] is 2.6-fold lower in IC50: 680 nM for the first, 260 nM for the second.

First: Cc1c(Cl)cccc1CNC(=O)c1ccc(S(=O)(=O)Nc2nccs2)cc1 [Example 61, N-(3-chloro-2-methylbenzyl)-4-[(1,3-thiazol-2-ylamino)sulfonyl]benzamide]
Second: O=C(NCCc1cccc(Cl)c1)c1ccc(S(=O)(=O)Nc2nccs2)cc1 [Example 70, N-[2-(3-chlorophenyl)ethyl]-4-[(1,3-thiazol-2-ylamino)sulfonyl]benzamide]
The IC50 of the first is lower: 160 nM for the first, over 300 nM for the second.

First: O=C(NCc1ccc(C(F)(F)F)c(F)c1)c1ccc(S(=O)(=O)Nc2ncns2)cc1Cl [Example 375, 2-Chloro-N-[3-fluoro-4-(trifluoromethyl)benzyl]-4-[(1,2,4-thiadiazol-5-ylamino)sulfonyl]benzamide]
Second: O=C(NCc1ccc(OC(F)(F)F)c(F)c1)c1ccc(S(=O)(=O)Nc2ncns2)cc1 [Example 321, N-[3-fluoro-4-(trifluoromethoxy)benzyl]-4-[(1,2,4-thiadiazol-5-ylamino)sulfonyl]benzamide]
The IC50 of the first is 11-fold higher: 450 nM for the first, 40 nM for the second. The second is the more potent here.

`COc1ccc(NC(=O)c2ccc(S(=O)(=O)Nc3nccs3)cc2)cn1` [Example 177, N-(6-methoxypyridin-3-yl)-4-[(1,3-thiazol-2-ylamino)sulfonyl]benzamide] and `COc1ccccc1C1CCCN1C(=O)c1ccc(S(=O)(=O)Nc2nccs2)cc1` (stereo not drawn) [Example 254, 4-{[2-(2-Methoxyphenyl)pyrrolidin-1-yl]carbonyl}-N-1,3-thiazol-2-yl-benzenesulfonamide] cannot be ordered by IC50: 5670 nM for the first, over 1000 nM for the second.

`O=C(NCc1ccc(C(F)(F)F)cc1)c1ccc(S(=O)(=O)Nc2nccs2)cc1F` [Example 325, 2-Fluoro-4-[(1,3-thiazol-2-ylamino)sulfonyl]-N-[4-(trifluoromethyl)benzyl]benzamide] and `O=C(NCc1ccc(C(F)(F)F)cc1)c1ccc(S(=O)(=O)Nc2nccs2)cn1` [Example 342, 5-[(1,3-Thiazol-2-ylamino)sulfonyl]-N-[4-(trifluoromethyl)benzyl] pyridine-2-carboxamide] are within 1.5-fold of each other in IC50: 460 nM for the first, 510 nM for the second.

Going from `COc1cccc(C2CCCN(C(=O)c3ccc(S(=O)(=O)Nc4nccs4)cc3)C2)c1` (stereo not drawn) [Example 217, 4-{[3-(3-Methoxyphenyl)piperidin-1-yl]carbonyl}-N-1,3-thiazol-2-yl-benzenesulfonamide] to `COc1cccc(CC2CCCN(C(=O)c3ccc(S(=O)(=O)Nc4nccs4)cc3)C2)c1` (stereo not drawn) [Example 263, 4-{[3-(3-Methoxybenzyl)piperidin-1-yl]carbonyl}-N-1,3-thiazol-2-yl-benzenesulfonamide], the IC50 falls from 2910 nM to 1130 nM (2.6-fold).

`Cc1ccc(C2(O)CCN(C(=O)c3ccc(S(=O)(=O)Nc4nccs4)cc3)CC2)cc1` [Example 252, 4-{[4-Hydroxy-4-(4-methylphenyl)piperidin-1-yl]carbonyl}-N-1,3-thiazol-2-yl-benzenesulfonamide] and `COc1ccccc1CC1CCCN(C(=O)c2ccc(S(=O)(=O)Nc3nccs3)cc2)C1` (stereo not drawn) [Example 196, 4-{[3-(2-Methoxybenzyl)piperidin-1-yl]carbonyl}-N-1,3-thiazol-2-yl-benzenesulfonamide] cannot be ordered by IC50: 2110 nM for the first, over 1000 nM for the second.

First: O=C(NCc1cc(F)cc(F)c1)c1ccc(S(=O)(=O)Nc2nccs2)cc1 [Example 83, N-(3,5-difluorobenzyl)-4-[(1,3-thiazol-2-ylamino)sulfonyl]benzamide]
Second: O=C(NCc1cc(F)cc(F)c1F)c1ccc(S(=O)(=O)Nc2nccs2)cc1 [Example 65, 4-[(1,3-Thiazol-2-ylamino)sulfonyl]-N-(2,3,5-trifluorobenzyl)benzamide]
The IC50 of the first is 6.2-fold lower: 620 nM for the first, 3840 nM for the second. The first is the more potent here.

Going from `CC(NC(=O)c1ccc(S(=O)(=O)Nc2nccs2)cc1)c1ccc(C(F)(F)F)cc1` (stereo not drawn) [Example 118, 4-[(1,3-Thiazol-2-ylamino)sulfonyl]-N-{1-[4-(trifluoromethyl)phenyl]ethyl}benzamide] to `O=C(NCc1ccc(C(F)(F)F)cc1F)c1ccc(S(=O)(=O)Nc2nccs2)cc1` [Example 397, N-[2-fluoro-4-(trifluoromethyl)benzyl]-4-[(1,3-thiazol-2-ylamino)sulfonyl] benzamide], the IC50 falls from 760 nM to 220 nM (3.5-fold).

Going from `O=C(NCc1ccc(Cl)c(F)c1)c1ccc(S(=O)(=O)Nc2nccs2)c(F)c1` [Example 295, N-(4-chloro-3-fluorobenzyl)-3-fluoro-4-[(1,3-thiazol-2-ylamino)sulfonyl]benzamide] to `O=C(NCc1ccc(Cl)c(C(F)(F)F)c1)c1ccc(S(=O)(=O)Nc2nccs2)cc1` [Example 395, N-[4-chloro-3-(trifluoromethyl)benzyl]-4-[(1,3-thiazol-2-ylamino)sulfonyl]benzamide], the IC50 falls from 220 nM to 30 nM (7.3-fold).

Compared with `O=C(NCc1ccc(C(F)(F)F)cc1)c1ccc(S(=O)(=O)Nc2ncc(Cl)s2)c(F)c1` [Example 315, 4-{[(5-Chloro-1,3-thiazol-2-yl)amino]sulfonyl}-3-fluoro-N-[4-(trifluoromethyl)benzyl] benzamide], `O=C(NCc1ccc(C(F)(F)F)cc1)c1ccc(S(=O)(=O)Nc2ncc(Cl)s2)cn1` [Example 344, 5-{[(5-Chloro-1,3-thiazol-2-yl)amino]sulfonyl}-N-[4-(trifluoromethyl)benzyl]pyridine-2-carboxamide] is 4.7-fold higher in IC50: 110 nM for the first, 520 nM for the second.

Compared with `Cc1nnc(NS(=O)(=O)c2ccc(C(=O)NCc3ccc(C(F)(F)F)cc3)cc2)s1` [Example 11, 4-{[(5-Methyl-1,3,4-thiadiazol-2-yl)amino]sulfonyl}-N-[4-(trifluoromethyl)benzyl]benzamide], `O=C(NCc1cccc(C(F)(F)F)c1)c1ccc(S(=O)(=O)Nc2ncc(Cl)s2)cc1F` [Example 354, 4-{[(5-Chloro-1,3-thiazol-2-yl)amino]sulfonyl}-2-fluoro-N-[3-(trifluoromethyl)benzyl]benzamide] is 12-fold lower in IC50: 2560 nM for the first, 210 nM for the second. The second is the more potent here.

Work on `Cn1nc(Cc2ccc(Cl)cc2)cc1NC(=O)c1ccc(S(=O)(=O)Nc2ncc(Cl)s2)c(F)c1` [Example 379, N-[3-(4-chlorobenzyl)-1-methyl-1H-pyrazol-5-yl]-4-{[(5-chloro-1,3-thiazol-2-yl)-amino]sulfonyl}-3-fluorobenzamide] yielded an IC50 of 20 nM.
